In assay [1] the target is T1, BACE1 (Homo sapiens, UniProt P56817). In words: In Vitro Enzymatic BACE FRET (Fluorescence Resonance Energy Transfer) Assay. To be noted: read-out: BACE1 FRET assay. In kind it is biochemical. The method, boiled down:
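Acetate buffer at pH 4.2 with 10% DMSO and 100 uM genapol hosts the enzymatic reaction, initiated by 50 nM FRET substrate and allowed to proceed one hour. Tris quench to neutral pH precedes the fluorescence measurement.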

The target of assay [2] is T1, BACE1. As to the kind of experiment: In Vitro BACE Cell-based Assay (HEK cell assay): Aβ40 in conditioned medium of cells stably expressing Amyloid Precursor Protein, sandwich ELISA. To be noted: read-out: HEK cell assay. The method, boiled down:
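HEK cells stably expressing APP were treated 24 h with compound in 10-point dose response starting at 100 or 10 μM (0.1% DMSO). Secreted Aβ40 quantified by sandwich ELISA (pAb40 capture, biotinylated 6E10 detection, europium time-resolved fluorescence), with IC50 derived from percent inhibition versus concentration.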

This passage reports IC50 results from patent US8426447B2, “Spiro-tricyclic ring compounds as beta-secretase modulators and methods of use” (Amgen Inc., priority 2008, dated 2013).

The structures appear in SMILES notation.

T1 sequence (P56817 46-501, species assumed): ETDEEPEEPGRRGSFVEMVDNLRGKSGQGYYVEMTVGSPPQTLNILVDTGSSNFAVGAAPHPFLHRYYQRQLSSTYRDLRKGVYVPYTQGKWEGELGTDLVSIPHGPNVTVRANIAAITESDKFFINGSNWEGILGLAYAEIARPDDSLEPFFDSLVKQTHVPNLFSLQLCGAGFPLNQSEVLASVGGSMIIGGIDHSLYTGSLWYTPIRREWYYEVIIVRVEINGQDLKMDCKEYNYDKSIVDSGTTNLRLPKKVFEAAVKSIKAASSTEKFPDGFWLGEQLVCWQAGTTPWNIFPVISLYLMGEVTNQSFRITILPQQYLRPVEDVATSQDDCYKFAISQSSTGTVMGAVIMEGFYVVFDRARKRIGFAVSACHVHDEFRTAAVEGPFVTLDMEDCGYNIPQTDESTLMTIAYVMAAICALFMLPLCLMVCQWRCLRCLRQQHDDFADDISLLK

Turning to `NC1=N[C@]2(CO1)c1cc(C3=CCSCC3)ccc1Oc1ccc(-c3cncnc3)cc12` [compound 831], the IC50 was less than 0.1 µM on BACE1 [1] (Table IV, class symbols) and less than 0.1 µM at BACE1 [2] (Table IV, class symbols).

Take `CC(C)(C)CCOc1nccc2c1[C@@]1(COC(N)=N1)c1cc(-c3cncnc3)ccc1O2` [compound 985]: the IC50 at BACE1 [1] is 0.1 to 1 µM; at BACE1 [2], greater than 5 µM.

For `NC1=N[C@@]2(CO1)c1cc(-c3cccnc3)ccc1Oc1cnc(CCC3CC3)cc12` [compound 695], the results for the IC50 on BACE1 [1] and at BACE1 [2] were less than 0.1 µM and 0.1 to 1 µM, respectively.

Turning to `CC(C)(C)OC(=O)n1c(-c2ccc3c(c2)[C@@]2(COC(N)=N2)c2ccccc2O3)cc2ccccc21` [compound 568], the IC50 was greater than 5 µM on BACE1 [1] (Table IV, class symbols) and greater than 5 µM at BACE1 [2] (Table IV, class symbols).

As to `NC1=N[C@@]2(CO1)c1cc(-c3cccnc3)ccc1Oc1ccc(N3CCCC3=O)cc12` [compound 863], the IC50 is less than 0.1 µM at BACE1 [1] (Table IV, class symbols) and 0.1 to 1 µM at BACE1 [2] (Table IV, class symbols).

In the case of `NC1=N[C@]2(CO1)c1cc(OC3COC3)ccc1Oc1ccc(-c3cncnc3)cc12` [compound 776], the IC50 at BACE1 [1] and at BACE1 [2] was 0.1 to 1 µM in each case.

Take `Cn1cc(-c2ccc3c(c2)[C@]2(COC(N)=N2)c2cc(-c4ccc(F)nc4)ccc2O3)cn1` [compound 631]: the IC50 on BACE1 [1] (Table IV, class symbols) was less than 0.1 µM; at BACE1 [2] (Table IV, class symbols), less than 0.1 µM.

As to `CC(C)(C)COc1ccc2c(c1)[C@]1(COC(N)=N1)c1cc(-c3ccc(Br)nn3)ccc1O2` [compound 970], the results for the IC50 at BACE1 [1] and at BACE1 [2] were 0.1 to 1 µM and greater than 5 µM, respectively.

Regarding `CC1(COc2ccc3c(c2)[C@]2(COC(N)=N2)c2cc(-c4cncnc4)cc(F)c2O3)COC1` [compound 796], the IC50 on BACE1 [1] (Table IV, class symbols) was less than 0.1 µM; on BACE1 [2] (Table IV, class symbols) it was 0.1 to 1 µM.

On to `CC1(C)Cc2cc(-c3ccc4c(c3)[C@]3(COC(N)=N3)c3cc(-c5cncnc5)ccc3O4)ccc2O1` [compound 841], for which the IC50 on BACE1 [1] (Table IV, class symbols) is less than 0.1 µM; on BACE1 [2] (Table IV, class symbols) it was 0.1 to 1 µM.

With `CCOC(C)(C)C#Cc1cnc2c(c1)[C@]1(COC(N)=N1)c1cc(-c3cccnc3)ccc1O2` [compound 347], the IC50 on BACE1 [1] (in vitro BACE FRET enzyme assay, IC50 class symbols) is less than 0.1 µM; on BACE1 [2] (HEK cell-based assay, Aβ40 in conditioned medium, IC50 class symbols), less than 0.1 µM.

For the compound `COc1ccc2c(c1)[C@@]1(COC(N)=N1)c1c(ccc(-c3cncnc3)c1F)O2` [compound 899], the IC50 lay in the range of 0.1 to 1 µM on BACE1 [1] (Table IV, class symbols) and 1 to 5 µM on BACE1 [2] (Table IV, class symbols).

Turning to `NC1=N[C@]2(CO1)c1cc(C3=CCOCC3)ccc1Oc1cc(F)c(O)cc12` [compound 491], the IC50 at BACE1 [1] was in the range of 0.1 to 1 µM; on BACE1 [2] (HEK cells) it was 1 to 5 µM.

Regarding `COC(C)(C)C#Cc1cc(F)c2c(c1)[C@@]1(COC(N)=N1)c1cc(-c3ccc(F)nc3)ccc1O2` [compound 645], the IC50 on BACE1 [1] (Table IV, class symbols) is 0.1 to 1 µM; on BACE1 [2] (Table IV, class symbols) it was 1 to 5 µM.

`Cc1cc(-c2ccc3c(c2)[C@]2(COC(N)=N2)c2cc(-c4ccc(F)nc4)ccc2O3)on1` [compound 565]: the IC50 is less than 0.1 µM at BACE1 [1] (Table IV, class symbols) and 0.1 to 1 µM at BACE1 [2] (Table IV, class symbols).

Regarding `CC(C)C#Cc1cnc2c(c1)[C@]1(COC(N)=N1)c1cc(-c3cncnc3)ccc1O2` [compound 743], the IC50 at BACE1 [1] and on BACE1 [2] was less than 0.1 µM each time.

As to `COc1ccncc1-c1ccc2c(c1)[C@@]1(COC(N)=N1)c1cc(OCC(C)(C)C)ccc1O2` [compound 217], the IC50 on BACE1 [1] (Table III, IC50's in uM ranges) is 0.1 to 1 µM; at BACE1 [2] (Table III, IC50's in uM ranges) it was 1 to 5 µM.

With `CC(C)(C)CC(O)c1ccc2c(c1)[C@@]1(COC(N)=N1)c1cc(-c3ccc(F)nc3)ccc1O2` (stereo partly drawn) [162b], the IC50 on BACE1 [1] (Table III, IC50's in uM ranges) lay in the range of 0.1 to 1 µM; on BACE1 [2] (Table III, IC50's in uM ranges), 0.1 to 1 µM.

As to `NC1=N[C@@]2(CO1)c1cc(Br)ccc1Oc1cnc(Cl)cc12` [compound 548], the IC50 at BACE1 [1] (Table IV, class symbols) was greater than 5 µM; on BACE1 [2] (Table IV, class symbols), greater than 5 µM.

`CC(C)C(C)(O)COc1ccc2c(c1)[C@]1(COC(N)=N1)c1cc(-c3cccnc3)ccc1O2` (stereo partly drawn) [compound 867]: the IC50 on BACE1 [1] (Table IV, class symbols) was less than 0.1 µM; on BACE1 [2] (Table IV, class symbols), less than 0.1 µM.

Turning to `NC1=N[C@]2(CO1)c1cc(C3=CCNCC3)ccc1Oc1ccc(-c3cccnc3)cc12` [compound 810], the IC50 at BACE1 [1] (Table IV, class symbols) was less than 0.1 µM; at BACE1 [2] (Table IV, class symbols), less than 0.1 µM.

Consider `COC(C)(C)C#Cc1cnc2c(c1)[C@@]1(COC(N)=N1)c1cc(-c3ccncc3)ccc1O2` [compound 692], for which the IC50 at BACE1 [1] and at BACE1 [2] was greater than 5 µM in each case.

For `CC(C)(C)C[C@H](F)c1ccc2c(c1)[C@]1(COC(N)=N1)c1cc(-c3cncnc3)ccc1O2` [116a, (4S)-2′-((1S)-1-fluoro-3,3-dimethylbutyl)-7′-(5-pyrimidinyl)spiro[1,3-oxazole-4,9′-xanthen]-2-amine], the IC50 at BACE1 [1] (Table III, IC50's in uM ranges) is less than 0.1 µM; at BACE1 [2] (Table III, IC50's in uM ranges) it was 0.1 to 1 µM.

Regarding `COc1ccc2c(c1)C1(COC(N)=N1)c1cc(-c3ccccc3Cl)ccc1O2` (stereo not drawn) [Example 28, 2′-(2-chlorophenyl)-7′-methoxyspiro[1,3-oxazole-4,9′-xanthen]-2-amine], the IC50 is greater than 5 µM on BACE1 [1] (Table 1) and 1 to 5 µM on BACE1 [2] (Table 1, Aβ40, 24 h incubation).

On to `CC(C)C[C@@H]1CN(c2ccc3c(c2)[C@]2(COC(N)=N2)c2cc(-c4cncnc4)ccc2O3)CCO1` [compound 422], for which the IC50 at BACE1 [1] and at BACE1 [2] (HEK cells) was 0.1 to 1 µM in each case.

As for `COC(=O)/C=C/c1ccc2c(c1)[C@@]1(COC(N)=N1)c1cc(Br)ccc1O2` [compound 169], the IC50 on BACE1 [1] (Table III, IC50's in uM ranges) is 1 to 5 µM; on BACE1 [2] (Table III, IC50's in uM ranges), greater than 5 µM.

As for `CC(C)(C)COc1ccc2c(c1)[C@]1(COC(N)=N1)c1cc(-c3cc(Cl)ccc3F)ccc1O2` [Example 75, (4S)-2′-(5-chloro-2-fluorophenyl)-7′-(2,2-dimethylpropoxy)spiro[1,3-oxazole-4,9′-xanthen]-2-amine], the IC50 on BACE1 [1] (Table II) is less than 0.1 µM; on BACE1 [2] (Table II, Aβ40, 24 h incubation), 0.1 to 1 µM.

As to `CC(C)Oc1ccc(-c2cc3c(cn2)Oc2ccc(-c4cccnc4)cc2[C@@]32COC(N)=N2)cc1` [compound 851], the IC50 at BACE1 [1] (Table IV, class symbols) is less than 0.1 µM; on BACE1 [2] (Table IV, class symbols), 0.1 to 1 µM.

In the case of `COc1ccc2c(c1)[C@]1(COC(N)=N1)c1cc(NC(=O)[C@H](C)OC)ccc1O2` [compound 535], the IC50 lay in the range of 1 to 5 µM at BACE1 [1] (Table IV, class symbols) and 1 to 5 µM on BACE1 [2] (Table IV, class symbols).

For `CC(C)(C)C#Cc1ccc2c(c1)C1(COC(N)=N1)c1cc(C#CC(C)(C)C)ccc1O2` [compound 930], the IC50 at BACE1 [1] lay within 0.1 to 1 µM; on BACE1 [2], 1 to 5 µM.

As to `NC1=N[C@@]2(CO1)c1cc(-c3ccccc3F)ccc1Oc1cnc(Cl)cc12` [compound 425], the IC50 at BACE1 [1] was 0.1 to 1 µM; on BACE1 [2] (HEK cells), greater than 5 µM.

Turning to `CC1(C)C=C(c2cc3c(cn2)Oc2ccc(-c4cccnc4)cc2[C@@]32COC(N)=N2)CCO1` [compound 437, (5S)-3-(6,6-dimethyl-3,6-dihydro-2H-pyran-4-yl)-7-(3-pyridinyl)spiro[chromeno[2,3-c]pyridine-5,4′-[1,3]oxazol]-2′-amine], the IC50 at BACE1 [1] and on BACE1 [2] (HEK cells) was less than 0.1 µM each time.

As for `COC(C)(C)C#Cc1cnc2c(c1)[C@]1(COC(N)=N1)c1cc(-c3cncnc3)ccc1O2` [compound 822], the IC50 on BACE1 [1] (Table IV, class symbols) was less than 0.1 µM; at BACE1 [2] (Table IV, class symbols), less than 0.1 µM.

Take `COC(=O)CCc1ccc2c(c1)[C@]1(COC(N)=N1)c1cc(-c3cncnc3)ccc1O2` [compound 877]: the IC50 at BACE1 [1] (Table IV, class symbols) lay in the range of 0.1 to 1 µM; at BACE1 [2] (Table IV, class symbols), 0.1 to 1 µM.

Regarding `NC1=N[C@]2(CO1)c1cc(C3=CCOCC3)ccc1Oc1ccc(C3CC3)cc12` [compound 756], the values for the IC50 at BACE1 [1] and on BACE1 [2] were 0.1 to 1 µM and 1 to 5 µM, respectively.

In the case of `NC1=N[C@@]2(CO1)c1cc(-c3cccnc3)ccc1Oc1ccc(-c3ccc(F)nc3)cc12` [compound 969], the IC50 at BACE1 [1] and on BACE1 [2] was less than 0.1 µM each time.
